Assay results taken from PMC3866693 (Journal of medicinal chemistry, 2013).

Key:
[1] = system: mGluR1 in monkey brain; assay: PET baseline experiment in rhesus monkey, brain radioactivity uptake; type: in vivo, rhesus monkey (Macaca mulatta)
[2] = biological target: mGluR1 (Rattus norvegicus, UniProt P23385); assay: stimulation of phosphoinositide hydrolysis, cloned rat receptors; type: cell-based; conditions: 10 μM
[3] = biological target: rat BZP site; assay: NIMH PDSP binding screen
[4] = biological target: GABAA; assay: NIMH PDSP binding screen; parameters: species or system human
[5] = system: human mGluR1; conditions: read-out: IC50 (affinity for mGluR1); human mGluR1, reported; cited from earlier work
[6] = compared with 7; cited from earlier work
[7] = biological target: mGluR5 (Rattus norvegicus, UniProt P31424); assay: stimulation of phosphoinositide hydrolysis, cloned rat receptors; type: cell-based; conditions: 10 μM
[8] = biological target: NMDA; assay: NIMH PDSP binding screen; parameters: species or system human
[9] = biological target: mGluR5 in monkey brain (Macaca mulatta, UniProt A0ACM8QRY8); assay: PET challenge experiment with mGluR5-selective ligand in rhesus monkey; type: in vivo, rhesus monkey (Macaca mulatta); conditions: 5 mg/kg i.v. at 30 min after [^18F]11, third monkey
[10] = biological target: mGluR1 in monkey brain (Macaca mulatta, UniProt I2CU04); assay: PET preblock and challenge experiments with mGluR1 antagonist in rhesus monkey; type: in vivo, rhesus monkey (Macaca mulatta)
[11] = system: human mGluR1; conditions: VS = fP × Bmax/KD; cited from earlier work
[12] = system: rat mGluR1; conditions: VS = fP × Bmax/KD; cited from earlier work

Chain of mGluR1 in monkey brain (Macaca mulatta, UniProt I2CU04) (I2CU04 19-1195): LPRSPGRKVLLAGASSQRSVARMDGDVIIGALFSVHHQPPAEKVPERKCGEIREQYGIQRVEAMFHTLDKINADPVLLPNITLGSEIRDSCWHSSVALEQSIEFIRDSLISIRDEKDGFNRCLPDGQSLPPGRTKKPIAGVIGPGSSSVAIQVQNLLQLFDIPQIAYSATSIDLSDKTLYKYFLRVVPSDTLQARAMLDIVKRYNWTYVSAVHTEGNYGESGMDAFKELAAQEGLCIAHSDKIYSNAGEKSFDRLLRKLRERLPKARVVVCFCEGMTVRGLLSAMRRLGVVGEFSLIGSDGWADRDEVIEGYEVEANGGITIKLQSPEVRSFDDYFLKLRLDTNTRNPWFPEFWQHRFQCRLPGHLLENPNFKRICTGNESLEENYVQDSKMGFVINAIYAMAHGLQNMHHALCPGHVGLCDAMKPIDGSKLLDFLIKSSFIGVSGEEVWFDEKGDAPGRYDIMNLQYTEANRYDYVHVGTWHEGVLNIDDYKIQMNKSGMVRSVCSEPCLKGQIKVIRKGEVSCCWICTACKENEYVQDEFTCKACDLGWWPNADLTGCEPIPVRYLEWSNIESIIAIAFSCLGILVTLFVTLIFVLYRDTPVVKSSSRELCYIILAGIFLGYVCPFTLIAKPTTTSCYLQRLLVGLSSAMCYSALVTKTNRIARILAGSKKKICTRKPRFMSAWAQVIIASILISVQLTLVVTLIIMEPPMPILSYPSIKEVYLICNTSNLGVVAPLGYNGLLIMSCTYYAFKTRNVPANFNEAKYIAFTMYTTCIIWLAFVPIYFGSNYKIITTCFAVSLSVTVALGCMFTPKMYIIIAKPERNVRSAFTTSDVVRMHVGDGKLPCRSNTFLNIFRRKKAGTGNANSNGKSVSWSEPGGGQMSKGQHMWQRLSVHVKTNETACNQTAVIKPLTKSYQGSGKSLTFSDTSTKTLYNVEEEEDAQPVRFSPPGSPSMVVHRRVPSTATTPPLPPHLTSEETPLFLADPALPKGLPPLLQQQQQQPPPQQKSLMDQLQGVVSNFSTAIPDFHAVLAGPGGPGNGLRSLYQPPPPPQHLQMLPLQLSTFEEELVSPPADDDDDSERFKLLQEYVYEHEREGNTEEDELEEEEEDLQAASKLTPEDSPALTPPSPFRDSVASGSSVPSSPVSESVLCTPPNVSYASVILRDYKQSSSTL
Chain of mGluR5 (P31424 21-1203): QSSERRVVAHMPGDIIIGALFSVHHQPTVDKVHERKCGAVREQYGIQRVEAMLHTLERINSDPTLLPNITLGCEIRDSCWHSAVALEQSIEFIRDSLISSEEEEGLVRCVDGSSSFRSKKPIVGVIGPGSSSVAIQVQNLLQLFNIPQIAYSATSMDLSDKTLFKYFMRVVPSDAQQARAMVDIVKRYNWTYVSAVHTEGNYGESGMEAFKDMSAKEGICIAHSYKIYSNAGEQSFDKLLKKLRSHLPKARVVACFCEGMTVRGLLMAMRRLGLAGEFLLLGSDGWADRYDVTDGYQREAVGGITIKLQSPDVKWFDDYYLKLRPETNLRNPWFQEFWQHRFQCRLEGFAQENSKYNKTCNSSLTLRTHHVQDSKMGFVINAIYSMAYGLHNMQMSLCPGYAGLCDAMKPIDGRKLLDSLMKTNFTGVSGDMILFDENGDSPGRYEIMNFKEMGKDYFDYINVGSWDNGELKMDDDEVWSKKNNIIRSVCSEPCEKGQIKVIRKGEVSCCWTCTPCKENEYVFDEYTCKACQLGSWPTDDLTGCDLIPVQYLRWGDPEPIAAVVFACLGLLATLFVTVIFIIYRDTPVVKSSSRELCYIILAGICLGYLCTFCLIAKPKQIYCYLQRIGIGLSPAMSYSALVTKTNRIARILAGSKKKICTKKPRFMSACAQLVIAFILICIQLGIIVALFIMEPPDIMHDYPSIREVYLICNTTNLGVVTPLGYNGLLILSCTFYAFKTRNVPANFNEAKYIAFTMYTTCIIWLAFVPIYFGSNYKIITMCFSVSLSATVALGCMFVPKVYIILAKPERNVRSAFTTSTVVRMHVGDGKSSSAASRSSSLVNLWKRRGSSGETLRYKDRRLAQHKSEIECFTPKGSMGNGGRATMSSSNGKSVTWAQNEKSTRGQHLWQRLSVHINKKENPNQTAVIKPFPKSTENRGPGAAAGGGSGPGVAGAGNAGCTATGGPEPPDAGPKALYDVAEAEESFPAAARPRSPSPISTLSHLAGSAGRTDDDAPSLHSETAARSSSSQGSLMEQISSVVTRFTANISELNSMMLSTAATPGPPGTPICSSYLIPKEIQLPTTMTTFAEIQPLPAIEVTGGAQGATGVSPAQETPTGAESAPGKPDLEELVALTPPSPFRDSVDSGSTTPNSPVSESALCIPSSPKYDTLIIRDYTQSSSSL
Chain of mGluR1 (P23385 19-1199): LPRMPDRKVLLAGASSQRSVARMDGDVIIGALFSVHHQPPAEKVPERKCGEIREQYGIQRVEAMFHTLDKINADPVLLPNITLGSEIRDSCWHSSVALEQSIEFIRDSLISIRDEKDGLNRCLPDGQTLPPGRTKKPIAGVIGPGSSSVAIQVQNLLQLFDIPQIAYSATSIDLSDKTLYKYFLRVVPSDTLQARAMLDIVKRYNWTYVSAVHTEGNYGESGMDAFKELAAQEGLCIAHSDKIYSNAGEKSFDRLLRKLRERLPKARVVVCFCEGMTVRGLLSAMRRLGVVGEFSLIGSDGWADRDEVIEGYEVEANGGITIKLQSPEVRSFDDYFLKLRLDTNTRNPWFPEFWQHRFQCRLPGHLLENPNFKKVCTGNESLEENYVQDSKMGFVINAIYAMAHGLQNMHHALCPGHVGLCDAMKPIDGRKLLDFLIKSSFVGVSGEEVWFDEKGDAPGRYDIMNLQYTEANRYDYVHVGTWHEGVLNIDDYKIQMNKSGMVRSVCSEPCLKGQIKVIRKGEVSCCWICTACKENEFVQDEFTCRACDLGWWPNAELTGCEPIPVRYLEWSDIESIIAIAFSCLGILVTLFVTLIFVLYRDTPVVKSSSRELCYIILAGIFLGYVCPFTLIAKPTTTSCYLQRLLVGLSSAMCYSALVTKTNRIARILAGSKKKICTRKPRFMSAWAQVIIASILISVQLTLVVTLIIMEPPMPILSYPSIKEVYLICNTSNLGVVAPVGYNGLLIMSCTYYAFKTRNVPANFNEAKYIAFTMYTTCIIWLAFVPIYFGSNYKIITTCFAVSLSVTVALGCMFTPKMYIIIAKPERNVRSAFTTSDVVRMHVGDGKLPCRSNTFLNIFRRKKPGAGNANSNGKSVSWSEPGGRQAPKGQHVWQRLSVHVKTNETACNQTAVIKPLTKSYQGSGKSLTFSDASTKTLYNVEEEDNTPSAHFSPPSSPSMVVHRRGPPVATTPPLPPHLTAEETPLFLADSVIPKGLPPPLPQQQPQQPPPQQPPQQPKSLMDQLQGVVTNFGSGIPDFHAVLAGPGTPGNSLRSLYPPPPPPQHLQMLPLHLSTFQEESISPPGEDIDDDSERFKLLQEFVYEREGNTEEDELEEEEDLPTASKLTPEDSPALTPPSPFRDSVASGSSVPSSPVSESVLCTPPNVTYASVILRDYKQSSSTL
Chain of mGluR5 in monkey brain (A0ACM8QRY8 19-1212): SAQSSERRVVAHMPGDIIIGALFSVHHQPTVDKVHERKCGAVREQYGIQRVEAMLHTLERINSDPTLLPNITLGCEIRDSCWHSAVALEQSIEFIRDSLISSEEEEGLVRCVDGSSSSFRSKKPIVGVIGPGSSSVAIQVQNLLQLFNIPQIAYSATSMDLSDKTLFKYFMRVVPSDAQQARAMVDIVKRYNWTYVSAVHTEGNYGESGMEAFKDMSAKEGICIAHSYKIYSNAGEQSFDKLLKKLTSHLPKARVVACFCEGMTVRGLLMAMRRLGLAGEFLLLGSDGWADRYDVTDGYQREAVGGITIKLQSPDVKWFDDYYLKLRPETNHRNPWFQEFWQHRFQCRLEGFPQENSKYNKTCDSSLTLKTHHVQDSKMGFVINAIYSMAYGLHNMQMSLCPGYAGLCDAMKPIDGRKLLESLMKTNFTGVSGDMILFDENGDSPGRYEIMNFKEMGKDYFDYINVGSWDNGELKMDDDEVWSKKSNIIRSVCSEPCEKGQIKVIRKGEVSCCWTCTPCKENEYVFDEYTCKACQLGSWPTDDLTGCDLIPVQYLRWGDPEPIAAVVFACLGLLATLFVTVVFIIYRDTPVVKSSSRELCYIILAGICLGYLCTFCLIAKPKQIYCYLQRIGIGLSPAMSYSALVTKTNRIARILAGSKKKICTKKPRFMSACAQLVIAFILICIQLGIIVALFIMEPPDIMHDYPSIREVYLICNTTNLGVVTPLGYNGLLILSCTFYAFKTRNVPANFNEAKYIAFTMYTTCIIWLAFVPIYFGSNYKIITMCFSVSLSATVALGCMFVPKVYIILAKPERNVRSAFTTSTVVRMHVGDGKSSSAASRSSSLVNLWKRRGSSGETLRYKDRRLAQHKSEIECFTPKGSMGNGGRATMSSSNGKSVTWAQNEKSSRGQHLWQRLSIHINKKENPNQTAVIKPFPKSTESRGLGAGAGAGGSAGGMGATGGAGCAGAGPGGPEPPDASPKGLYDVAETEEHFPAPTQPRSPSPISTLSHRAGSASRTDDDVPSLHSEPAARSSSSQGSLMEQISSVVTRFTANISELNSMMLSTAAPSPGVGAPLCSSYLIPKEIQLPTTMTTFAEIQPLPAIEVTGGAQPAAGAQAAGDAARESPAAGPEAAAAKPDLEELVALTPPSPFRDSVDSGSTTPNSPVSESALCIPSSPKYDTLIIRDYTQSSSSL

## CNc1cc(-c2csc(N(C)C(=O)c3ccc([18F])cc3)n2)ncn1 [[^18F]11, [^18F]4-Fluoro-N-methyl-N-(4-(6-(methylamino)pyrimidin-4-yl)thiazol-2-yl)benzamide]
[1]; all PET experiments in monkey
  radiodefluorination (radioactivity uptake in skull): negligible
[1]; baseline, at end of 2-h scan (120 min)
  decrease of cerebellum radioactivity from peak: 47%

## CNc1cc(-c2csc(N(C)C(=O)c3ccc(F)cc3)n2)ncn1 [compound 11, 4-Fluoro-N-methyl-N-(4-(6-(methylamino)pyrimidin-4-yl)thiazol-2-yl)benzamide]
[2]
  efficacy at mGluR1 (stimulation of phosphoinositide hydrolysis): antagonist
[3]
  Ki: > 10000 nM
[4]
  Ki: > 10000 nM
[5]
  IC50: 1.8 nM
[6]
  extent of metabolism in human liver microsomes: metabolized more extensively than 7
[7]
  efficacy at mGluR5 (stimulation of phosphoinositide hydrolysis): antagonist
[8]
  Ki: > 10000 nM

## CC(C)Nc1cc(-c2csc(N(C)C(=O)c3ccc(F)cc3)n2)ncn1 [[^18F]7, reference compound]
[5]
  IC50: 5.1 nM

## Cc1nc(C#Cc2cccnc2)cs1 [compound 18, 3-((2-methyl-4-thiazolyl)ethynyl)pyridine]
[9]
  effect on [^18F]11 brain washout kinetics after challenge: no change in the washout kinetics from any brain region

## CO[C@H]1CC[C@@H](C(=O)c2ccc3nc4c(cc3c2)CCCO4)CC1 [compound 17]
[10]; 3 mg/kg i.v. at 5 min before [^18F]11
  distribution of [^18F]11 radioactivity across brain after preblock: low and uniform
[10]; 3 mg/kg i.v. at 30 min after [^18F]11, second monkey
  effect on [^18F]11 brain radioactivity after challenge: rapid decrease in radioactivity at all mGluR1-containing regions

## Cc1c(-c2ccc(O[11CH3])cc2)nsc1NC(=O)[C@@H]1C[C@H]1C [[^11C]6]
[11]
  effective binding potential (VS): 0.0161
[12]
  effective binding potential (VS): 0.683
